According to ChEMBL document CHEMBL4619771, “Terpenoids from the Liverwort Plagiochila fruticosa and Their Antivirulence Activity against Candida albicans” (2020):
The source made the active and inactive calls. The calls are words filed in the database; no cut-off is given here.

Experiments:
Candida albicans [1] = assay: Antifungal activity against wild-type Candida albicans SC5314 assessed as reduction in filamentous growth; assay type: functional, organism-based
Candida albicans [2] = assay: Antifungal activity against Candida albicans DSY654 assessed as reduction in filamentous growth; assay type: functional, organism-based
Candida albicans [3] = assay: Antifungal activity against Candida albicans DSY654 assessed as inhibition of yeast to hyphal morphological transition measured at 6 hrs by fluorescent microscopy; assay type: functional, organism-based
Candida albicans [4] = assay: Antifungal activity against Candida albicans DSY654 assessed as reduction in number of adherent fungal cells on human A549 cells after 90 mins by calcofluor White staining based fluorescent microscopy; assay type: functional, organism-based
Candida albicans [5] = assay: Antifungal activity against Candida albicans DSY654 assessed as inhibition of massive filamentation at 4 to 32 ug/ml; assay type: functional, organism-based
Candida albicans [6] = assay: Antifungal activity against Candida albicans DSY654 assessed as inhibition of biofilm formation incubated for 24 hrs by XTT assay; assay type: functional, organism-based
Candida albicans [7] = assay: Antifungal activity against Candida albicans DSY654 assessed as inhibition of biofilm formation incubated for 24 hrs by fluorescent microscopy; assay type: functional, organism-based
Candida albicans [8] = assay: Downregulation of CDC35 gene expression in Candida albicans DSY654 at 4 ug/ml after 1.5 to 6 hrs by RT-qPCR assay; assay type: functional, organism-based
Candida albicans [9] = assay: Downregulation of RAS1 gene expression in Candida albicans DSY654 at 4 ug/ml after 1.5 to 6 hrs by RT-qPCR assay; assay type: functional, organism-based
Candida albicans [10] = assay: Upregulation of PDE2 gene expression in Candida albicans DSY654 at 4 ug/ml after 1.5 to 6 hrs by RT-qPCR assay; assay type: functional, organism-based
Candida albicans [11] = assay: Upregulation of NRG1 gene expression in Candida albicans DSY654 at 4 ug/ml after 1.5 to 6 hrs by RT-qPCR assay relative to control; assay type: functional
Candida albicans [12] = assay: Downregulation of UME6 gene expression in Candida albicans DSY654 at 4 ug/ml after 1.5 to 6 hrs by RT-qPCR assay; assay type: functional, organism-based
Candida albicans [13] = assay: Downregulation of ALS3 gene expression in Candida albicans DSY654 at 4 ug/ml after 1.5 to 6 hrs by RT-qPCR assay; assay type: functional, organism-based
Candida albicans [14] = assay: Downregulation of HWP1 gene expression in Candida albicans DSY654 at 4 ug/ml after 1.5 to 6 hrs by RT-qPCR assay; assay type: functional, organism-based
Candida albicans [15] = assay: Downregulation of ECE1 gene expression in Candida albicans DSY654 at 4 ug/ml after 1.5 to 6 hrs by RT-qPCR assay; assay type: functional, organism-based

## CC(C)[C@]1(O)C(=O)C[C@@]2(C)CC3=C([C@H](C)CC[C@@H]21)[C@H](O)CC3=O
Candida albicans [1]
  Activity: inactive

## CC(=O)O[C@@H]1/C=C(\CO)[C@H](OC(=O)CCc2ccccc2)C[C@H]2[C@@H](/C=C(\C)[C@@H]1O)[C@@]2(C)CO
Candida albicans [1]
  Activity: inactive

## CC(C)[C@@]1(O)C(=O)C[C@]2(C)C[C@]3(O)C(=CC(=O)[C@H]3C)[C@@H](C)CC[C@H]21
Candida albicans [1]
  Activity: inactive

## CC1=C2C[C@@]3(C)CC(=O)[C@](O)(C(C)C)[C@@H]3CC[C@H](C)[C@@]2(O)CC1=O
Candida albicans [1]
  Activity: inactive

## CC(C)[C@@]1(O)C(=O)C[C@]2(C)CC3=C(C(=O)C[C@@]3(C)O)[C@@H](C)CC[C@H]21
Candida albicans [1]
  Activity: inactive

## C=C1CC[C@H]2[C@@H](/C=C(\C)[C@H](OC(C)=O)[C@H](OC(C)=O)[C@@H]1OC(C)=O)C2(C)C
Candida albicans [1]
  Activity: inactive
Candida albicans [2]
  Activity: Active
Candida albicans [3]
  Activity: Dose-dependent effect
Candida albicans [4]
  Activity: Dose-dependent effect
Candida albicans [5]
  Activity: Active
Candida albicans [6]
  Activity: Dose-dependent effect
Candida albicans [7]
  Activity: Dose-dependent effect
Candida albicans [8]
  Activity: Active
Candida albicans [9]
  Activity: Active
Candida albicans [10]
  Activity: Active
Candida albicans [11]
  fold change (FC): >10
Candida albicans [12]
  Activity: Active
Candida albicans [13]
  Activity: Active
Candida albicans [14]
  Activity: Active
Candida albicans [15]
  Activity: Active

## CC(=O)OC/C1=C\[C@@H](O)[C@@H](OC(C)=O)/C(C)=C/[C@@H]2[C@H](C[C@H]1OC(=O)CCc1ccccc1)[C@]2(C)CO
Candida albicans [1]
  Activity: inactive

## CC1=C2C[C@]3(C)CC(=O)[C@@](O)(C(C)C)[C@H]3CC[C@H](C)[C@]2(O)CC1=O
Candida albicans [1]
  Activity: inactive

## C=C1[C@@H](O)[C@@H]2[C@H](C[C@@H](O)/C(COC(=O)CCc3ccccc3)=C/[C@@H](O)[C@H]1OC(C)=O)[C@]2(C)CO
Candida albicans [1]
  Activity: inactive

## CC(=O)O[C@H]1OC=C(CO)[C@H]2[C@@H]1[C@@]1(CC[C@H]3[C@@H]2[C@@]3(CO)COC(=O)/C=C/c2ccccc2)CO1
Candida albicans [1]
  Activity: inactive

## C=C1CC[C@@H](O)[C@]2(C)CC[C@H]3[C@@H]([C@@H]12)[C@@H](C(C)(C)O)CC[C@@H]3C
Candida albicans [1]
  Activity: inactive

## CC(=O)O[C@H]1/C(C)=C/[C@@H]2[C@H](C[C@@H](OC(=O)CCc3ccccc3)/C(CO)=C/[C@H]1O)[C@]2(C)CO
Candida albicans [1]
  Activity: inactive

## C=C1CC[C@H]2[C@@H](/C=C(\C)CC[C@H]1O)[C@@H](C(C)(C)O)CC[C@@H]2C
Candida albicans [1]
  Activity: inactive
Candida albicans [2]
  Activity: Active

## C=C1[C@@H](O)[C@@H]2[C@H](C[C@@H](OC(=O)CCc3ccccc3)/C(CO)=C/[C@@H](OC(C)=O)[C@H]1O)[C@]2(C)CO
Candida albicans [1]
  Activity: inactive
